According to PubChem BioAssay (NCI):
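Following 48 hours of exposure in 96-well plates, responses at five concentrations were used to interpolate endpoints linearly. TGI is the concentration that stops growth completely.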

What was measured:
Test in all cases: NCI tumour cell line growth inhibition, 48 h
UACC-257 melanoma = test system: UACC-257 melanoma
MCF7 breast = test system: MCF7 breast
SN12C renal = test system: SN12C renal
SF-295 CNS = test system: SF-295 CNS
NCI-H460 lung = test system: NCI-H460 lung
U251 CNS = test system: U251 CNS
HCT-15 colon = test system: HCT-15 colon
NCI/ADR-RES ovarian = test system: NCI/ADR-RES ovarian
786-0 renal = test system: 786-0 renal
OVCAR-5 ovarian = test system: OVCAR-5 ovarian
T-47D breast = test system: T-47D breast
PC-3 prostate = test system: PC-3 prostate
TK-10 renal = test system: TK-10 renal
SK-OV-3 ovarian = test system: SK-OV-3 ovarian
COLO 205 colon = test system: COLO 205 colon
OVCAR-4 ovarian = test system: OVCAR-4 ovarian
SW-620 colon = test system: SW-620 colon
LOX IMVI melanoma = test system: LOX IMVI melanoma
SK-MEL-2 melanoma = test system: SK-MEL-2 melanoma
DU-145 prostate = test system: DU-145 prostate
HOP-62 NSCLC = test system: HOP-62 NSCLC
MALME-3M melanoma = test system: MALME-3M melanoma
MOLT-4 leukemia = test system: MOLT-4 leukemia
ACHN renal = test system: ACHN renal
HS 578T breast = test system: HS 578T breast
EKVX NSCLC = test system: EKVX NSCLC
SR leukemia = test system: SR leukemia
SNB-19 CNS = test system: SNB-19 CNS
MDA-MB-231 breast = test system: MDA-MB-231 breast
HT29 colon = test system: HT29 colon
OVCAR-8 ovarian = test system: OVCAR-8 ovarian
CAKI-1 renal = test system: CAKI-1 renal
IGROV1 ovarian = test system: IGROV1 ovarian
NCI-H522 lung = test system: NCI-H522 lung
SF-539 CNS = test system: SF-539 CNS
NCI-H23 lung = test system: NCI-H23 lung
M14 melanoma = test system: M14 melanoma
K-562 leukemia = test system: K-562 leukemia
CCRF-CEM leukemia = test system: CCRF-CEM leukemia
HCT-116 colon = test system: HCT-116 colon
UACC-62 melanoma = test system: UACC-62 melanoma
NCI-H226 lung = test system: NCI-H226 lung
BT-549 breast = test system: BT-549 breast
UO-31 renal = test system: UO-31 renal
SK-MEL-28 melanoma = test system: SK-MEL-28 melanoma
HCC-2998 colon = test system: HCC-2998 colon
KM12 colon = test system: KM12 colon
SNB-75 CNS = test system: SNB-75 CNS
SF-268 CNS = test system: SF-268 CNS
MDA-N = test system: MDA-N
A549 NSCLC = test system: A549 NSCLC
SK-MEL-5 melanoma = test system: SK-MEL-5 melanoma
RPMI-8226 leukemia = test system: RPMI-8226 leukemia
MDA-MB-435 = test system: MDA-MB-435
OVCAR-3 ovarian = test system: OVCAR-3 ovarian
HL-60(TB) leukemia = test system: HL-60(TB) leukemia
A498 renal = test system: A498 renal

In the case of CC1(C)OC(=O)C(C)(C)C(=O)O1, the TGI (UACC-257 melanoma) is reported as > 100 µM, the TGI (MCF7 breast) is reported as > 100 µM and the TGI (SN12C renal) is reported as > 100 µM. The TGI (SF-295 CNS) was > 100 µM, the TGI (NCI-H460 lung) was > 100 µM and the TGI (U251 CNS) was > 100 µM. For the same compound, the TGI (HCT-15 colon) was > 100 µM, the TGI (NCI/ADR-RES ovarian) was > 100 µM and the TGI (786-0 renal) was > 100 µM. For the same compound, the TGI (OVCAR-5 ovarian) was > 100 µM, the TGI (T-47D breast) was > 100 µM and the TGI (PC-3 prostate) was > 100 µM. The TGI (TK-10 renal) was > 100 µM, the TGI (SK-OV-3 ovarian) was > 100 µM and the TGI (COLO 205 colon) was > 100 µM. For the same compound, the TGI (OVCAR-4 ovarian) was > 100 µM, the TGI (SW-620 colon) was > 100 µM and the TGI (LOX IMVI melanoma) was > 100 µM. The TGI (SK-MEL-2 melanoma) was > 100 µM, the TGI (DU-145 prostate) was > 100 µM and the TGI (HOP-62 NSCLC) was > 100 µM. For the same compound, the TGI (MALME-3M melanoma) was > 100 µM, the TGI (MOLT-4 leukemia) was > 100 µM and the TGI (ACHN renal) was > 100 µM. For the same compound, the TGI (HS 578T breast) was > 100 µM, the TGI (EKVX NSCLC) was > 100 µM and the TGI (SR leukemia) was > 100 µM. For the same compound, the TGI (SNB-19 CNS) was > 100 µM, the TGI (MDA-MB-231 breast) was > 100 µM and the TGI (HT29 colon) was > 100 µM. The TGI (OVCAR-8 ovarian) was > 100 µM, the TGI (CAKI-1 renal) was > 100 µM and the TGI (IGROV1 ovarian) was > 100 µM. For the same compound, the TGI (NCI-H522 lung) was > 100 µM, the TGI (SF-539 CNS) was > 100 µM and the TGI (NCI-H23 lung) was > 100 µM. The TGI (M14 melanoma) was > 100 µM, the TGI (K-562 leukemia) was > 100 µM and the TGI (CCRF-CEM leukemia) was > 100 µM. The TGI (HCT-116 colon) was > 100 µM, the TGI (UACC-62 melanoma) was > 100 µM and the TGI (NCI-H226 lung) was > 100 µM. For the same compound, the TGI (BT-549 breast) was > 100 µM, the TGI (UO-31 renal) was > 100 µM and the TGI (SK-MEL-28 melanoma) was > 100 µM. For the same compound, the TGI (HCC-2998 colon) was > 100 µM, the TGI (KM12 colon) was > 100 µM and the TGI (SNB-75 CNS) was > 100 µM. The TGI (SF-268 CNS) was > 100 µM, the TGI (MDA-N) was > 100 µM and the TGI (A549 NSCLC) was > 100 µM. The TGI (SK-MEL-5 melanoma) was > 100 µM.
For CSc1ncnc2c1cnn2Cc1cnnn1COCC(O)CO (stereo not given), the TGI (UACC-257 melanoma) was > 100 µM, the TGI (MCF7 breast) was > 100 µM and the TGI (SN12C renal) was > 100 µM. For the same compound, the TGI (SF-295 CNS) was > 100 µM, the TGI (U251 CNS) was > 100 µM and the TGI (HCT-15 colon) was > 100 µM. For the same compound, the TGI (NCI/ADR-RES ovarian) was > 100 µM, the TGI (RPMI-8226 leukemia) was > 100 µM and the TGI (786-0 renal) was > 100 µM. The TGI (OVCAR-5 ovarian) was > 100 µM, the TGI (T-47D breast) was > 100 µM and the TGI (PC-3 prostate) was > 100 µM. For the same compound, the TGI (TK-10 renal) was > 100 µM, the TGI (SK-OV-3 ovarian) was > 100 µM and the TGI (COLO 205 colon) was > 100 µM. The TGI (MDA-MB-435) was > 100 µM, the TGI (OVCAR-4 ovarian) was > 100 µM and the TGI (SW-620 colon) was > 100 µM. The TGI (LOX IMVI melanoma) was > 100 µM, the TGI (SK-MEL-2 melanoma) was > 100 µM and the TGI (DU-145 prostate) was > 100 µM. For the same compound, the TGI (HOP-62 NSCLC) was > 100 µM, the TGI (MOLT-4 leukemia) was > 100 µM and the TGI (ACHN renal) was > 100 µM. For the same compound, the TGI (OVCAR-3 ovarian) was > 100 µM, the TGI (EKVX NSCLC) was > 100 µM and the TGI (SR leukemia) was > 100 µM. The TGI (SNB-19 CNS) was > 100 µM, the TGI (HL-60(TB) leukemia) was > 100 µM and the TGI (A498 renal) was > 100 µM. For the same compound, the TGI (MDA-MB-231 breast) was > 100 µM, the TGI (HT29 colon) was > 100 µM and the TGI (OVCAR-8 ovarian) was > 100 µM. The TGI (CAKI-1 renal) was > 100 µM, the TGI (IGROV1 ovarian) was > 100 µM and the TGI (NCI-H522 lung) was 29 µM. The TGI (SF-539 CNS) was > 100 µM, the TGI (NCI-H23 lung) was > 100 µM and the TGI (M14 melanoma) was > 100 µM. For the same compound, the TGI (K-562 leukemia) was > 100 µM, the TGI (CCRF-CEM leukemia) was > 100 µM and the TGI (HCT-116 colon) was > 100 µM. For the same compound, the TGI (UACC-62 melanoma) was > 100 µM, the TGI (NCI-H226 lung) was > 100 µM and the TGI (BT-549 breast) was > 100 µM. The TGI (UO-31 renal) was > 100 µM, the TGI (SK-MEL-28 melanoma) was > 100 µM and the TGI (HCC-2998 colon) was > 100 µM. The TGI (KM12 colon) was > 100 µM, the TGI (SF-268 CNS) was 46.5 µM and the TGI (MDA-N) was > 100 µM. The TGI (A549 NSCLC) was > 100 µM and the TGI (SK-MEL-5 melanoma) was > 100 µM.
